From US20160024204A1, “METHODS FOR PRODUCING ANTIBODIES” (BRISTOL-MYERS SQUIBB COMPANY, priority 2013, published 2016)

Test system: P. pastoris
Assay: Effects of hydroxyurea on cell growth and antibody productivity in P. pastoris fermentation (Run 01MAY11)
Settings: 2.6-2.8 g/L hydroxyurea; for WB Titer (anti-IL-6 antibody): age 90 h, lots T5, T6 and T10

NC(=O)NO [Hydroxyurea]
WCW reached and maintained by hydroxyurea treatment lots (control lots ~400 g/Kg) (after peak cell density at 30-40 hours, FIG. 8): ~450 g/kg | WB Titer (anti-IL-6 antibody): 75.0 ± 2.7 Normalized | WB Titer (anti-IL-6 antibody) (listed as hydroxyurea): 75 Normalized
